Measurements published in patent US10485235B2, “Aryloxypyrimidinyl ethers as herbicides” (FMC Corporation, priority 2015, dated 2019).

Legend:
Format in all cases: in vivo
kochia (Kochia scoparia) [1] = assay: Test A postemergence, kochia; conditions: postemergence, 0 to 100 scale, 0 is no effect, 100 is complete control, approximately 10 days
From the text: (§1) Seeds of plant species selected from barnyardgrass (Echinochloa crus-galli), kochia (Kochia scoparia), ragweed (common ragweed, Ambrosia elatior), ryegrass, Italian (Italian ryegrass, Lolium multiflorum), foxtail, giant (giant foxtail, Setaria faberii), and pigweed (Amaranthus retroflexus), were planted into a blend of loam soil and sand and treated preemergence with a directed soil spray using test chemicals formulated in a non-phytotoxic solvent mixture which included a surfactant.
(§2) At the same time, plants selected from these weed species and also wheat (Triticum aestivum), corn (Zea mays), blackgrass (Alopecurus myosuroides), and galium (catchweed bedstraw, Galium aparine), were planted in pots containing the same blend of loam soil and sand and treated with postemergence applications of test chemicals formulated in the same manner. Plants ranged in height from 2 to 10 cm and were in the one- to two-leaf stage for the postemergence treatment. Treated plants and untreated controls were maintained in a greenhouse for approximately 10 days, after which time all treated plants were compared to untreated controls and visually evaluated for injury. Plant response ratings, summarized in Table A, are based on a 0 to 100 scale where 0 is no effect and 100 is complete control. A dash (—) response means no test result.

kochia (Kochia scoparia) [2] = assay: Test A preemergence, kochia; conditions: Preemergence, 0 to 100 scale (0 no effect, 100 complete control)
From the text: as §1, §2

[3] = system: pigweed (Amaranthus retroflexus); assay: Test A preemergence, pigweed; conditions: Preemergence, 0 to 100 scale (0 no effect, 100 complete control)
From the text: as §1, §2

[4] = system: pigweed (Amaranthus retroflexus); assay: Test A postemergence, pigweed; conditions: postemergence, 0 to 100 scale, 0 is no effect, 100 is complete control, approximately 10 days
From the text: as §1, §2

[5] = system: ragweed (common ragweed, Ambrosia elatior); assay: Test A postemergence, ragweed; conditions: postemergence, 0 to 100 scale, 0 is no effect, 100 is complete control, approximately 10 days
From the text: as §1, §2

rice (Oryza sativa) = assay: Test B flooded paddy test, rice; conditions: 250 g ai/ha, Flood; visual rating after 13 to 15 days; scale 0 to 100, 0 is no effect, 100 is complete control
Method: (§3) Plant species in the flooded paddy test selected from rice (Oryza sativa), sedge, umbrella (small-flower umbrella sedge, Cyperus difformis), ducksalad (Heteranthera limosa), and barnyardgrass (Echinochloa crus-galli) were grown to the 2-leaf stage for testing. At time of treatment, test pots were flooded to 3 cm above the soil surface, treated by application of test compounds directly to the paddy water, and then maintained at that water depth for the duration of the test. Treated plants and controls were maintained in a greenhouse for 13 to 15 days, after which time all species were compared to controls and visually evaluated. Plant response ratings, summarized in Table B, are based on a scale of 0 to 100 where 0 is no effect and 100 is complete control. A dash (—) response means no test result.

corn (Zea mays) = assay: Test A postemergence, corn; conditions: postemergence, 0 to 100 scale, 0 is no effect, 100 is complete control, approximately 10 days
From the text: as §1, §2

[6] = system: ryegrass, Italian (Italian ryegrass, Lolium multiflorum); assay: Test A preemergence, Italian ryegrass; conditions: Preemergence, 0 to 100 scale (0 no effect, 100 complete control)
From the text: as §1, §2

[7] = system: foxtail, giant (giant foxtail, Setaria faberii); assay: Test A postemergence, giant foxtail; conditions: postemergence, 0 to 100 scale, 0 is no effect, 100 is complete control, approximately 10 days
From the text: as §1, §2

[8] = system: foxtail, giant (giant foxtail, Setaria faberii); assay: Test A preemergence, giant foxtail; conditions: Preemergence, 0 to 100 scale (0 no effect, 100 complete control)
From the text: as §1, §2

[9] = system: wheat (Triticum aestivum); assay: Test A postemergence, wheat; conditions: postemergence, 0 to 100 scale, 0 is no effect, 100 is complete control, approximately 10 days
From the text: as §1, §2

[10] = system: barnyardgrass (Echinochloa crus-galli); assay: Test A postemergence, barnyardgrass; conditions: postemergence, 0 to 100 scale, 0 is no effect, 100 is complete control, approximately 10 days
From the text: as §1, §2

[11] = system: barnyardgrass (Echinochloa crus-galli); assay: Test B flooded paddy test, barnyardgrass; conditions: 250 g ai/ha, Flood; visual rating after 13 to 15 days; scale 0 to 100, 0 is no effect, 100 is complete control
Method: as §3

[12] = system: ryegrass, Italian (Italian ryegrass, Lolium multiflorum); assay: Test A postemergence, Italian ryegrass; conditions: postemergence, 0 to 100 scale, 0 is no effect, 100 is complete control, approximately 10 days
From the text: as §1, §2

[13] = system: barnyardgrass (Echinochloa crus-galli); assay: Test A preemergence, barnyardgrass; conditions: Preemergence, 0 to 100 scale (0 no effect, 100 complete control)
From the text: as §1, §2

[14] = system: ducksalad (Heteranthera limosa); assay: Test B flooded paddy test, ducksalad; conditions: 250 g ai/ha, Flood; visual rating after 13 to 15 days; scale 0 to 100, 0 is no effect, 100 is complete control
Method: as §3

[15] = system: ragweed (common ragweed, Ambrosia elatior); assay: Test A preemergence, ragweed; conditions: Preemergence, 0 to 100 scale (0 no effect, 100 complete control)
From the text: as §1, §2

[16] = system: sedge, umbrella (small-flower umbrella sedge, Cyperus difformis); assay: Test B flooded paddy test, umbrella sedge; conditions: 250 g ai/ha, Flood; visual rating after 13 to 15 days; scale 0 to 100, 0 is no effect, 100 is complete control
Method: as §3

[17] = system: galium (catchweed bedstraw, Galium aparine); assay: Test A postemergence, galium; conditions: postemergence, 0 to 100 scale, 0 is no effect, 100 is complete control, approximately 10 days
From the text: as §1, §2

[18] = system: blackgrass (Alopecurus myosuroides); assay: Test A postemergence, blackgrass; conditions: postemergence, 0 to 100 scale, 0 is no effect, 100 is complete control, approximately 10 days
From the text: as §1, §2

Row | SMILES | Plant response rating, Kochia (kochia (Kochia scoparia) [2]; 31 g ai/ha) | Plant response rating, Kochia (kochia (Kochia scoparia) [2]; 125 g ai/ha) | Plant response rating, Pigweed ([3]; 31 g ai/ha) | Plant response rating, Pigweed ([3]; 125 g ai/ha) | Plant response rating, Pigweed ([4]; 31 g ai/ha) | Plant response rating, Pigweed ([4]; 125 g ai/ha) | Plant response rating, Ragweed ([5]; 31 g ai/ha) | Plant response rating, Ragweed ([5]; 125 g ai/ha) | Plant response rating, Rice (rice (Oryza sativa)) | Plant response rating, Corn (corn (Zea mays); 31 g ai/ha) | Plant response rating, Corn (corn (Zea mays); 125 g ai/ha) | Plant response rating, Ryegrass, Italian ([6]; 31 g ai/ha) | Plant response rating, Ryegrass, Italian ([6]; 125 g ai/ha) | Plant response rating, Foxtail, Giant ([7]; 31 g ai/ha) | Plant response rating, Foxtail, Giant ([7]; 125 g ai/ha) | Plant response rating, Foxtail, Giant ([8]; 31 g ai/ha) | Plant response rating, Foxtail, Giant ([8]; 125 g ai/ha) | Plant response rating, Wheat ([9]; 31 g ai/ha) | Plant response rating, Wheat ([9]; 125 g ai/ha) | Plant response rating, Barnyardgrass ([10]; 31 g ai/ha) | also measured
1 | Cl/C=C/COc1c(Cl)cccc1Oc1ncc(Cl)cn1 [Compound 48] | 0 | 80 | 0 | 60 | 50 | 80 | 0 | 10 | 20 | 10 | 20 | 0 | 10 | 20 | 60 | 30 | 80 | 0 | 10 | 10 | Plant response rating, Kochia (kochia (Kochia scoparia) [1]; 31 g ai/ha): 60; Plant response rating, Kochia (kochia (Kochia scoparia) [1]; 125 g ai/ha): 100; Plant response rating, Barnyardgrass ([10]; 125 g ai/ha): 50; Plant response rating, Barnyardgrass [11]: 20; Plant response rating, Ryegrass, Italian ([12]; 31 g ai/ha): 0; Plant response rating, Ryegrass, Italian ([12]; 125 g ai/ha): 0; Plant response rating, Barnyardgrass ([13]; 31 g ai/ha): 10; Plant response rating, Barnyardgrass ([13]; 125 g ai/ha): 60; Plant response rating, Ducksalad [14]: 70; Plant response rating, Ragweed ([15]; 31 g ai/ha): 0; Plant response rating, Ragweed ([15]; 125 g ai/ha): 0; Plant response rating, Sedge, Umbrella [16]: 70; Plant response rating, Galium ([17]; 31 g ai/ha): 10; Plant response rating, Galium ([17]; 125 g ai/ha): 30; Plant response rating, Blackgrass ([18]; 31 g ai/ha): 0; Plant response rating, Blackgrass ([18]; 125 g ai/ha): 10
2 | Cc1cccc(Oc2ncc(Cl)cn2)c1OC/C=C/C(F)(F)F [Compound 58] | 0 | 0 | 0 | 100 | 10 | 30 | 0 | 0 | 15 | 0 | 10 | 0 | 0 | 20 | 70 | 40 | 90 | 0 | 0 | 50 | Plant response rating, Barnyardgrass ([10]; 125 g ai/ha): 70; Plant response rating, Barnyardgrass [11]: 0; Plant response rating, Ryegrass, Italian ([12]; 31 g ai/ha): 0; Plant response rating, Ryegrass, Italian ([12]; 125 g ai/ha): 0; Plant response rating, Barnyardgrass ([13]; 31 g ai/ha): 40; Plant response rating, Barnyardgrass ([13]; 125 g ai/ha): 90; Plant response rating, Ducksalad [14]: 100; Plant response rating, Ragweed ([15]; 31 g ai/ha): 0; Plant response rating, Ragweed ([15]; 125 g ai/ha): 0; Plant response rating, Sedge, Umbrella [16]: 100; Plant response rating, Galium ([17]; 31 g ai/ha): 0; Plant response rating, Galium ([17]; 125 g ai/ha): 30; Plant response rating, Blackgrass ([18]; 31 g ai/ha): 0; Plant response rating, Blackgrass ([18]; 125 g ai/ha): 30
3 | Cc1cccc(Oc2ncc(Cl)cn2)c1OC/C=C/Cl [Compound 59] | 60 | 100 | 20 | 100 | 40 | 70 | 0 | 0 | 0 | 0 | 10 | 0 | 0 | 20 | 50 | 10 | 50 | 0 | 0 | 40 | Plant response rating, Barnyardgrass ([10]; 125 g ai/ha): 100; Plant response rating, Barnyardgrass [11]: 20; Plant response rating, Ryegrass, Italian ([12]; 31 g ai/ha): 0; Plant response rating, Ryegrass, Italian ([12]; 125 g ai/ha): 0; Plant response rating, Barnyardgrass ([13]; 31 g ai/ha): 30; Plant response rating, Barnyardgrass ([13]; 125 g ai/ha): 100; Plant response rating, Ducksalad [14]: 100; Plant response rating, Ragweed ([15]; 31 g ai/ha): 0; Plant response rating, Ragweed ([15]; 125 g ai/ha): 0; Plant response rating, Sedge, Umbrella [16]: 90; Plant response rating, Galium ([17]; 31 g ai/ha): 90; Plant response rating, Galium ([17]; 125 g ai/ha): 30; Plant response rating, Blackgrass ([18]; 31 g ai/ha): 0; Plant response rating, Blackgrass ([18]; 125 g ai/ha): 50
